Laboratory results as given in patent US9796724B2, “Substituted pyrazolo[1,5-a]pyrimidine compounds as Trk kinase inhibitors” (Array BioPharma, Inc., priority 2009, dated 2017).
pIC50: −log10 of the molar value.

What was measured:
Human Jak2 kinase domain = Human Jak2 kinase domain (Homo sapiens (Human), UniProt O60674); test: Jak2 inhibition assay (Omnia kinase assay); assay type: biochemical; details: Table 1; >1000 nM when >50% inhibition not observed at 1000 nM; read-out: Jak2 Enzyme IC50
Text: The assays described in Examples C, D, E and F for the determination of JAK1, JAK2, JAK3 and Tyk2 kinase activity, respectively, utilized the Omnia® Kinase fluorescence peptide substrate-based technology (Invitrogen). The specific components of the assay mixture are described in Examples C, D and E. […] Two-μL aliquots of these were transferred to a fresh plate for a ten-fold intermediate dilution with assay buffer. […] Human Jak2 kinase domain comprising amino acids 808-1132 was purchased from Invitrogen Corporation, Carlsbad, Calif.

[1] = molecular target: TrkA (histidine-tagged recombinant human TrkA, cytoplasmic domain) (Homo sapiens (Human), UniProt P04629); test: TrkA ELISA assay; assay type: biochemical; details: Table 1, 500 μM ATP, read-out: TrkA Enzyme IC50
TrkA (histidine-tagged recombinant human TrkA, cytoplasmic domain), sequence (P04629 440-796): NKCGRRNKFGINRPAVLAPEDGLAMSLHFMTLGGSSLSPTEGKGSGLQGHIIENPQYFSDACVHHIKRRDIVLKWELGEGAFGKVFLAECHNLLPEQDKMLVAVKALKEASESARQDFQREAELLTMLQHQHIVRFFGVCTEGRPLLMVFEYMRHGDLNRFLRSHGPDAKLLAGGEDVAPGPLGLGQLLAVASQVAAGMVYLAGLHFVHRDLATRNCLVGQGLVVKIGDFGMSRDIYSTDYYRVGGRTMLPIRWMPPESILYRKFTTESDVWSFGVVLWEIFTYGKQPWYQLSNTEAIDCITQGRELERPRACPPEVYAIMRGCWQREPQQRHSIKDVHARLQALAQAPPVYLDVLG
Protocol: An enzyme-linked immunosorbant assay (ELISA) was used to assess TrkA kinase activity in the presence of inhibitors. Immulon 4HBX 384-well microtiter plates (Thermo part #8755) were coated with a 0.025 mg/mL solution of poly (Glu, Ala, Tyr; 6:3:1; Sigma P3899). […] The assay buffer consisted of 25 mM MOPS pH 7.5, 0.005% (v/v) Triton X-100 and 5 mM MgCl2. The reaction mixture was removed from the plate by washing with PBS containing 0.1% (v/v) Tween 20. The phosphorylated reaction product was detected using 0.2 μg/mL of a phosphotyrosine specific monoclonal antibody (clone PY20) conjugated to horseradish peroxidase in conjunction with the TMB Peroxidase Substrate System (KPL). After the addition of 1M phosphoric acid, the chromogenic substrate color intensity was quantitated via absorbance at 450 nm.

Human Jak2 kinase domain, sequence (O60674 808-1132): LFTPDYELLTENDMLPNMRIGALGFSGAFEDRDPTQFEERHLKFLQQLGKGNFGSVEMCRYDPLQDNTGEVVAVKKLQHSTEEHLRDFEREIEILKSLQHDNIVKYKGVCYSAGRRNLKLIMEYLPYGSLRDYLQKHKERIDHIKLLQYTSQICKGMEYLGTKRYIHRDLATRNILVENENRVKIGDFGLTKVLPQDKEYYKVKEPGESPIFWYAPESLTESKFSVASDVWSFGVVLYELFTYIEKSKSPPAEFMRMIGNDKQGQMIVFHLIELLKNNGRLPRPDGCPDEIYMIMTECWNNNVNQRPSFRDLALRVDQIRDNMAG

| pIC50 (Human Jak2 kinase domain) | pIC50 [1] | Compound |
| --- | --- | --- |
| < 6.00 | 7.57 | C[C@H](O)[C@@H](CO)NC(=O)c1cnn2ccc(N3CCC[C@@H]3c3cc(F)ccc3F)nc12 [Example 176, 5-((R)-2-(2,5-difluorophenyl)pyrrolidin-1-yl)-N-((2R,3S)-1,3-dihydroxybutan-2-yl)pyrazolo[1,5-a]pyrimidine-3-carboxamide] |
| < 6.00 | 7.79 | C[C@@H](O)[C@H](CO)NC(=O)c1cnn2ccc(N3CCC[C@@H]3c3cc(F)ccc3F)nc12 [Example 174, 5-((R)-2-(2,5-difluorophenyl)pyrrolidin-1-yl)-N-((2S,3R)-1,3-dihydroxybutan-2-yl)pyrazolo[1,5-a]pyrimidine-3-carboxamide] |
| < 6.00 | 7.91 | C[C@H](O)[C@H](CO)NC(=O)c1cnn2ccc(N3CCC[C@@H]3c3cc(F)ccc3F)nc12 [Example 175, 5-((R)-2-(2,5-difluorophenyl)pyrrolidin-1-yl)-N-((2S,3S)-1,3-dihydroxybutan-2-yl)pyrazolo[1,5-a]pyrimidine-3-carboxamide] |
|  | 7.94 | O=C(NCCN1CCC(O)CC1)c1cnn2ccc(N3CCC[C@@H]3c3cc(F)ccc3F)nc12 [Example 170, 5-((R)-2-(2,5-difluorophenyl)pyrrolidin-1-yl)-N-(2-(4-hydroxypiperidin-1-yl)ethyl)pyrazolo[1,5-a]pyrimidine-3-carboxamide] |
